Data on three compounds can be found in ChEMBL document CHEMBL1125440, “Synthesis and antiviral activity of acyclic nucleosides with a 3(S),5-dihydroxypentyl or 4(R)-methoxy-3(S),5-dihydroxypentyl side chain” (1992).

Values after ≈ are worked out from the molar mass of the structure shown. Bounds are passed on as bounds.

Assay [1] concerns E6SM. The assay can be described thus: Minimum inhibitory concentration (MIC) required to reduce McIntyre strain of HSV-1 induced cytopathogenicity by 50% in E6SM cells. It counts as functional. The conditions noted are these: Homo sapiens.
For assay [2], the system named is E6SM. Nature of the assay: (§1) Compounds was evaluated for its inhibitory effect on cytopathogenicity of vaccinia virus (VV) in E6SM cells. It counts as functional. The conditions noted are these: Homo sapiens. In general terms: Protection from cytopathic effect is a common read-out in antiviral testing.
The subject of assay [3] is E6SM. The assay can be described thus: Minimum inhibitory concentration (MIC) required to reduce Lyons strain of HSV-2 induced cytopathogenicity by 50% in E6SM cells. It counts as functional. The conditions noted are these: Homo sapiens.
Assay [4] deals with E6SM. Nature of the assay: Minimum inhibitory concentration (MIC) required to reduce B2006 strain of TK-HSV-1 induced cytopathogenicity by 50% in E6SM cells. It counts as functional. As to conditions: Homo sapiens.
Assay [5] deals with E6SM. The assay can be described thus: Minimum inhibitory concentration (MIC) required to reduce VMW 1837 strain of TK-HSV-1 induced cytopathogenicity by 50% in E6SM cells. It counts as functional. As to conditions: Homo sapiens.
Assay [6] concerns E6SM. The assay can be described thus: Minimum inhibitory concentration (MIC) required to reduce KOS strain of HSV-1 induced cytopathogenicity by 50% in E6SM cells. It counts as functional. As to conditions: Homo sapiens.
Assay [7] relates to E6SM. Nature of the assay: (§2) Compounds was evaluated for its inhibitory effect on cytopathogenicity of vesicular stomatitis virus (VSV) in E6SM cells. As to conditions: Homo sapiens. It counts as functional.
The subject of assay [8] is E6SM. The assay can be described thus: Minimum inhibitory concentration (MIC) required to reduce 196 strain of HSV-2 induced cytopathogenicity by 50% in E6SM cells. It counts as functional. The conditions noted are these: Homo sapiens.
For assay [9], the system named is E6SM. The assay can be described thus: Minimum inhibitory concentration (MIC) required to reduce G strain of HSV-2 induced cytopathogenicity by 50% in E6SM cells. It counts as functional. The conditions noted are these: Homo sapiens.
For assay [10], the system named is E6SM. The assay can be described thus: Minimum cytotoxic concentration (MCC) required to cause a microscopically detectable alteration of normal cell morphology against E6SM cells. It counts as functional. As to conditions: Homo sapiens.
In assay [11] the test system is E6SM. The assay can be described thus: Minimum inhibitory concentration (MIC) required to reduce F strain of HSV-1 induced cytopathogenicity by 50% in E6SM cells. It counts as functional. As to conditions: Homo sapiens.
In assay [12] the test system is E6SM. The assay is described as §2. It counts as functional, Homo sapiens.
The test system of assay [13] is E6SM. The description is as §1. It counts as functional, Homo sapiens.

With `Nc1nc(O)c2ncn(CC[C@H](O)CCO)c2n1`, the MIC with E6SM [1] was 0.6 µg/mL (≈ 2.37 µM); against E6SM [2] it was more than 400 µg/mL; in the assay with E6SM [3] it was 5 µg/mL (≈ 19.7 µM); against E6SM [4], more than 400 µg/mL; with E6SM [5], more than 400 µg/mL; against E6SM [6], 0.4 µg/mL (≈ 1.58 µM). In addition, the MIC in the assay on E6SM [7] is more than 400 µg/mL; in the assay on E6SM [8], 20 µg/mL (≈ 79 µM); with E6SM [9] it was 4 µg/mL (≈ 15.8 µM); with E6SM [11], 0.4 µg/mL (≈ 1.58 µM). In addition, the MCC with E6SM [10] is more than 400 µg/mL.

As for `Nc1ncnc2c1ncn2C[C@H](O)CO` [(S)-DHPA], the MIC is 70 µg/mL (≈ 335 µM) against E6SM [1]; 70 µg/mL (≈ 335 µM) against E6SM [2]; 250 µg/mL (≈ 1190 µM) against E6SM [3]; 300 µg/mL (≈ 1430 µM) against E6SM [4]; more than 400 µg/mL against E6SM [5]; 300 µg/mL (≈ 1430 µM) against E6SM [6]. The MIC worked out at 70 µg/mL (≈ 335 µM) in the assay on E6SM [7], 300 µg/mL (≈ 1430 µM) with E6SM [8], 300 µg/mL (≈ 1430 µM) against E6SM [9] and 70 µg/mL (≈ 335 µM) with E6SM [11]. In addition, the MCC in the assay on E6SM [10] was more than 400 µg/mL.

`Nc1nc2c(ncn2COCCO)c(=O)[nH]1` [ACYCLOVIR]: the MIC in the assay on E6SM [1] was 0.02 µg/mL (≈ 0.0888 µM); against E6SM [3], 0.02 µg/mL (≈ 0.0888 µM); in the assay on E6SM [4] it was 70 µg/mL (≈ 311 µM); against E6SM [5] it was 10 µg/mL (≈ 44.4 µM); with E6SM [6], 0.07 µg/mL (≈ 0.311 µM); with E6SM [8], 0.015 µg/mL (≈ 0.0666 µM). The MIC against E6SM [9] and with E6SM [11] was 0.04 µg/mL (≈ 0.178 µM) throughout. For the same compound, the VSV with E6SM [12] is given as more than 400. In the assay with E6SM [13], this compound had a VV of more than 400. For the same compound, in the assay with E6SM [10], the MCC was more than 400 µg/mL.
